Results published in patent US11413261B2, “Pharmaceutical composition for treating cancer comprising lactate metal salt” (METIMEDI PHARMACEUTICALS CO., LTD, priority 2014, dated 2022).

Legend:
PARP = PARP protein expression in HCT-116 treated with calcium lactate, IS, CA alone or in combination; format: cell-based, human; conditions: 5 mM calcium lactate alone, 24 hours
Protocol: The protein expression levels of PARP expressed in the colorectal cancer cell line were compared (FIG. 9) after a human colorectal cancer cell line (HCT-116) was treated individually or in combination for 24 hours with 5 mM calcium lactate, 5-indane sulfornamide (IS) as an inhibitor of carbonic anhydrase, or cinnamic acid (CA) as an inhibitor of MCT-4 which is a pathway of lactate. In this case, an untreated cancer cell line was used as a control group.

[1] = tested on: human kidney cancer cell line (Caki-1); test: Colony-forming ability, anticancer drug in combination with calcium lactate (6-well plates); format: cell-based; conditions: 2.5 mM calcium lactate alone, vs control
Protocol: Human kidney cancer cell line (Caki-1) with the cell number of 1×10^3 cells were seeded into an RPMI1640 medium in each of 6-well plates. After one day, the medium was replaced with fresh medium and the cells were treated with 0.3 nM, 0.5 nM, and 1 nM Everolimus alone or treated with various concentrations (0.3 nM, 0.5 nM, and 1 nM) of Everolimus in combination with 2.5 mM calcium lactate. Then, the colony-forming abilities of the cells were compared. In this case, a human kidney cancer cell line (Caki-1) untreated with any drug was used as a control group (FIGS. 53a and 53b).

[2] = tested on: human vascular endothelial cell (HUVEC); test: Tube formation of HUVEC in culture supernatants of treated cancer cell lines; format: cell-based
From the text: A human vascular endothelial cell (HUVEC) was inoculated into each of the obtained culture supernatant and cultured to analyze a conformational change of cells (FIG. 17). In this case, an HUVEC cultured using the culture medium of a cancer cell line cultured without treating with calcium lactate was used as a control group, and an HUVEC cultured with the treatment with Sulforaphane, which is a growth inhibitor of an HUVEC, was used as a comparison group.

[3] = tested on: human lung cancer cell line (A549); test: Colony-forming ability, anticancer drug in combination with calcium lactate (6-well plates); format: cell-based; conditions: 2.5 mM calcium lactate alone, vs control
Protocol: Human breast cancer cell line (MCF-7) and a human lung cancer cell line (A549) with the cell number of 1×10^3 cells were seeded into an RPMI1640 medium in each of 6-well plates. […]. Then, the colony-forming abilities of the cells were compared. In this case, a human breast cancer cell line (MCF-7) and a human lung cancer cell line (A549) untreated with any drug were used as control groups (FIGS. 42a, 42b, 43a and 43b).
(§1) Human lung cancer cell line (A549) with the cell number of 1×10^3 cells were seeded into an RPMI1640 medium in each of 6-well plates. […]. Then, the colony-forming abilities of the cells were compared. In this case, a human lung cancer cell line (A549) untreated with any drug was used as a control group (FIGS. 44a and 44b).
as §1, with “47a” for “44a”, “47b).” for “44b).”
as §1, with “49a” for “44a”, “49b).” for “44b).”
as §1, with “50a” for “44a”, “50b).” for “44b).”
as §1, with “51a” for “44a”, “51b).” for “44b).”

[4] = tested on: human breast cancer cell line (MCF-7); test: as above; format: cell-based; conditions: 2.5 mM calcium lactate alone, vs control
Protocol: Human breast cancer cell line (MCF-7) and a human lung cancer cell line (A549) with the cell number of 1×10^3 cells were seeded into an RPMI1640 medium in each of 6-well plates. […] Then, the colony-forming abilities of the cells were compared. In this case, a human breast cancer cell line (MCF-7) and a human lung cancer cell line (A549) untreated with any drug were used as control groups (FIGS. 42a, 42b, 43a and 43b).
Human breast cancer cell line (MCF-7) with the cell number of 1×10^3 cells were seeded into an RPMI1640 medium in each of 6-well plates. After one day, the medium was replaced with fresh medium and the cells were treated with 2.5 mM calcium lactate or 2 μM, 4 μM, and 8 μM Lapatinib alone or treated with various concentrations (2 μM, 4 μM, and 8 μM) of Lapatinib in combination with 2.5 mM calcium lactate. Then, the colony-forming abilities of the cells were compared. In this case, a human breast cancer cell line (MCF-7) untreated with any drug was used as a control group (FIGS. 52a and 52b).

[5] = tested on: human colorectal cancer cell line (HT-29); test: as above; format: cell-based; conditions: 2.5 mM calcium lactate alone, vs control
Protocol: as §1, with “colorectal” for “lung”, “(HT-29)” for “(A549)”, “46a” for “44a”, “46b).” for “44b).”
as §1, with “colorectal” for “lung”, “(HT-29)” for “(A549)”, “48a” for “44a”, “48b).” for “44b).”
as §1, with “colorectal” for “lung”, “(HT-29)” for “(A549)”, “(FIG. 55).” for “(FIGS. 44a and 44b).”

[6] = tested on: human colorectal cancer cell lines (HCT-116, HT-29, and DLD-1); test: Viability of colorectal cancer cell lines in plate with low adhesivity; format: cell-based; conditions: HCT-116, HT-29, DLD-1, 1.5 or 2.5 mM (untreated about 5%)
Protocol: Human colorectal cancer cell lines (HCT-116, HT-29, and DLD-1) were inoculated into a 6-well plate with low adhesivity and then cultured treating with various concentrations (0 mM, 1.5 mM, or 2.5 mM) of calcium lactate. Then, survival rates of the cells were compared (FIG. 26).

CC(O)C(=O)[O-].CC(O)C(=O)[O-].[Ca+2] (centres unmarked) [calcium lactate]
protein expression levels of PARP (PARP): decreased | colony-forming ability [1]: suppressed | tube-forming ability of HUVEC ([2]; culture supernatant of cancer cell line treated with 2.5 mM): reduced tube-forming ability similar to the comparison group treated with Sulforaphane | tube-forming ability of HUVEC ([2]; culture supernatants of cancer cell lines treated with 0.5, 1, 1.5, 2.5 mM for 24 hours, vs control): reduced tube-forming ability | colony-forming ability [3]: suppressed | colony-forming ability [4]: suppressed | colony-forming ability [5]: suppressed | cell apoptosis rate [6]: about 90%
